{"source": "patent US20210393549A1", "about": "“New use of R-enantiomer of adrenergic beta 2 receptor agonists for treatment of inflammatory bowel disease and its extra intestinal manifestations” (priority 2018, published 2021)", "key": {"[1]": {"tested_on": "DSS induced acute colitis", "conditions": "for colon histology (H&E), in words: Example 1, compared with untreated DSS mice; for Hist score (histological score): epithelium 0-4 plus infiltration 0-4; for Hist score (histological score) / Col Length (colon length): tenth day; for Hist score (histological score) / FOB (fecal occult blood) / Weight / DAI (disease active index) / Col Length (colon length): 1 mg/kg (R-B, S-B 10 mg/kg; RS-C 2 mg/kg); for Hist score (histological score) / FOB (fecal occult blood) / Weight / Col Length (colon length): mean ± SD; for FOB (fecal occult blood): grade 0, 2, 4; for FOB (fecal occult blood) / Weight / Col Length (colon length): i.g. daily 8 days; for DAI (disease active index): score 0 to 12, i.g. daily 8 days from 2nd day of DSS, n=5", "from_the_text": "In one embodiment, IBD was induced in mice by add DSS into drink water for 7 days. […] (Cooper, S. et al., Clinic pathologic study of dextran sulfate sodium experimental murine colitis, Laboratory Investigation, vol. 69, no. 2, p. 238-249, 1993)\nThe mice were scarified at day 10th for anatomy and histology evaluations. […] Each of the above histological features was scored individually and added together which is then collectively expressed as “histological score”, for quantitative evaluation (Cooper, S. et al., above).\nMale C57BL mice (8-10 weeks, 18-20 g) were grouped into control (drinking water only), DSS and DSS plus treatment groups (n=5). Acute colitis was induced by feeding mice with 2% (w/v) dextran sulfate sodium (DSS) (molecular mass 36-50 kDa) added to the drinking water given ad libitum for 7 days. At the end of seventh day, DSS was removed and animals received only drinking water for 2 days. The animals were euthanized for anatomical and histological examination at the tenth day after DSS ingestion.\nR-salbutamol (R-S) (1 mg/kg, S-salbutamol (S-S) (1 mg/kg), R-terbutaline (R-T) (1 mg/kg), S-terbutaline (S-T) (1 mg/kg), R-bambuterol (10 mg/kg), S-bambuterol (S-B) (10 mg/kg), R-clenbuterol (R-C) (1 mg/kg), RS-clenbuterol (RS-C) (2 mg/kg) were administered i.g. daily, starting from the 2nd day of DSS induction for consecutive 8 days. Dexamethasone (Dex), 1 mg/kg) was used as a reference drug.\nEvaluation of disease symptoms and histological changes Disease activity index (DAI): Animals were monitored daily for weight, water/food consumption, morbidity, stool consistency and fecal blood. […] The colon length was recorded as an indicator of inflammation. The entire colon was cut open longitudinally and gently flushed with sterile phosphate-buffered saline (PBS) to remove any traces of feces for pathology preparation. Colon segments were fixed in 10% neutral buffered formalin. Tissues were embedded in paraffin, sectioned, mounted on slides. H&E-stained paraffin section images were acquired. Pathological evaluation was conducted in a blinded manner.\nHistological Score: the scores were given as follows: epithelium, 0=normal morphology, 1=loss of goblet cells, 2=loss of goblet cells in large areas, 3=loss of crypts, and 4=loss of crypts in large areas; and inflammation cells infiltration, 0=no infiltrate, 1=infiltrate around the crypt basis, 2=infiltrate reaching the muscularis mucosae, 3=extensive infiltration reaching the muscularis mucosae and thickening of the mucosa with abundant edema, and 4=infiltration of the submucosa. Data were presented as mean±the standard deviation (SD)."}, "[2]": {"tested_on": "hemorrhoid inflammation symptoms", "experiment": "Hemorrhoid inflammation symptoms, oral or topical", "assay_type": "in vivo", "conditions": "given either orally or topically", "from_the_text": "These perianal pathological changes somewhat similar to hemorrhoid inflammation symptoms. […] This new used of beta2 agonists in treatment of hemorrhoid inflammation symptoms has never been disclosed in prior art."}, "[3]": {"tested_on": "DSS induced sub-acute colitis", "assay_type": "in vivo", "parameters": "DAI (disease active index) / FOB (fecal occult blood) / Hist score (histological score): scale not given here; Weight / Col Length (colon length): unit not given here", "from_the_text": "This invention also disclosed the used of R-salbutamol for treatment of sub acute or chronic phases of IBD. In one embodiment, IBD was induced by DSS as mentioned above, along with the treatment of R-salbutamol, at day 7th, DSS was removed and replaced with drinking water for additional 2 weeks. The disease active index (DAI) of mice was examined and evaluated periodically. The mice were scarified for pathological and histological evaluations at day of 23rd. In DSS induce IBD mice, there were significant loss of weight and fecal occult blood at day 14th and 22nd. The overall condition of colitis was severe although there was slightly improvement comparing the day 7th. The colon-rector length was significant shortened, and histological score were significant higher from control. In mice with DSS induced colitis, there were significant mononuclear leucocytes infiltration, few newly grew crypts with architectural disarray, denegation of epithelia, mucosa aberrant. There was also deep mucosal lymphocytosis, destruction of lamina propria and sometimes, transmural inflammation.\nSame as example 1, except • 1), Three weeks' study with one week treatment.\nDSS and all the treatment was removed and replaced with drinking water at the end of 1st week. Mice were given drink water and food ad libitum for additional 2 weeks."}, "[4]": {"tested_on": "DSS induced sub-acute colitis", "experiment": "Prolonged (two weeks) treatment in DSS induced sub-acute colitis", "assay_type": "in vivo, mice", "conditions": "evaluation at 23rd day, salbutamol 1 mg/kg, bambuterol 10 mg/kg", "from_the_text": "Same as example 2, except. 1), Two Weeks Treatment within a Three Weeks of Study\nDSS was removed from drinking water at the end of 1st week. The treatments were started at 1st day for consecutive 14 days (2 weeks). Only drinking water given for the 3rd week. The evaluation and examination were made at 23rd day as did in example 1."}, "TNBS-induced colitis": {"tested_on": "TNBS-induced colitis", "experiment": "TNBS-induced colitis (model for Crohn's disease)", "assay_type": "in vivo, Male mice", "from_the_text": "Male mice colitis was induced by rectal co-administration of ethanol and TNBS (Trinitrobenzenesulfonic acid). Severe colitis in mice that was characterized by weight loss and diarrhea. Histologically there were loss of normal structures, visible discrete epithelioid granuloma, multiple erosive lesions, massive transmural inflammation infiltration of lymphocytes, and the loss of goblet cells. […] There was significant alleviation of lesions, few inflammatory infiltration with growing crypts and recovery mucosa epithelia along the column. […] In addition, in TNBS treated colitis mice, there were perianal symptoms: erythema, abscesses and ulcers found in some mice, which may lead to perianal fissures or fistulas. […] The therapeutically effects of R-salbuterol, R-clenbuterol and R-bambuterol on the symptoms in TNBS induced Crohn's disease has never been reported in prior art."}, "[5]": {"tested_on": "knee joints (articular cartilage, meniscus)", "experiment": "Damage of knee joints in DSS induced IBD mice", "assay_type": "in vivo", "conditions": "compared with untreated DSS mice", "from_the_text": "In one embodiment, in DSS induced IBD mice, there was also a damage of knee joints. The articular cartilage structure became thinner and partially destroyed. The chondrocytes were degenerated, decreased and clustered. The meniscuses were damaged and lost its structural integrity. In X-ray, the layer of articular cartilage was thinner and bone structure was decreased. […] The articular cartilage and bone structure increased toward normal."}, "[6]": {"tested_on": "IMQ-induced Psoriasis-Like Skin lesions", "experiment": "IMQ-induced psoriasis-like skin lesions", "assay_type": "in vivo, mice", "conditions": "dorsal skin, IMQ-induced psoriasis mice", "method": "Mice were divided into control, psoriasis and psoriasis plus treatment groups, (n=8 in each group). Psoriasis were induced by topical application of imiquimod cream (62.5 mg) on shaved dorsal skin for seven consecutive days. Vaseline was used in control group. There were four treatment groups: three doses of R-salbutamol (R-Sal) (0.5 mg, 1 mg, 2 mg/kg) and Dexamethasone (1 mg/kg) as positive control. All the treatments and same volume of saline (in control group) were administered orally. In some experiment, R-bambuterol (long-last beta2 agonist) was used as an additional treatment group (n=3). Psoriasis Area Severity Index were used for evaluation. Each of the scores for erythema, scaling and skin thickness were measured separately and then group together as a calculative score. (FIG. 2)"}, "[7]": {"tested_on": "acne, maliaria, hives and eczema", "experiment": "Topical use on acne, maliaria, hives and eczema", "assay_type": "in vivo"}, "psoriasis and eczema": {"tested_on": "psoriasis and eczema", "experiment": "Oral administration in rats, psoriasis and eczema", "assay_type": "in vivo"}, "[8]": {"conditions": "one week treatment, evaluation at 23rd day, R-S, S-S 1 mg/kg, R-B, S-B 10 mg/kg"}, "[9]": {"conditions": "sub-acute or chronic DSS colitis, compared with untreated DSS mice"}}, "note": "Entries after “also recorded” stand apart in the source; their conditions may differ. Read-outs that look alike come from different tables or passages of the source."}
{"smiles": "CN(C)C(=O)Oc1cc(OC(=O)N(C)C)cc([C@@H](O)CNC(C)(C)C)c1", "note": "[R-B, R-bambuterol]", "values": [{"measurement": "colon histology (H&E), in words", "setting": "[1]", "result": "greatly improved"}, {"measurement": "Hist score (histological score)", "setting": "[1]", "result": "5 ± 0.5"}, {"measurement": "FOB (fecal occult blood)", "setting": "[1]", "result": "1 ± 0.5"}, {"measurement": "Weight", "setting": "[1]", "result": "92 ± 3.3"}, {"measurement": "DAI (disease active index)", "setting": "[1]", "result": 6}, {"measurement": "Col Length (colon length)", "setting": "[1]", "result": "7.2 ± 0.2^"}, {"measurement": "hemorrhoid inflammation symptoms", "setting": "[2]", "result": "significantly alleviated"}, {"measurement": "Col Length (colon length)", "setting": "[3]; [8]", "result": "7.9 ± 0.3"}, {"measurement": "DAI (disease active index)", "setting": "[3]; [8]", "result": 6}, {"measurement": "FOB (fecal occult blood)", "setting": "[3]; [8]", "result": "1.1 ± 0.5"}, {"measurement": "Hist score (histological score)", "setting": "[3]; [8]", "result": "4 ± 1"}, {"measurement": "Weight", "setting": "[3]; [8]", "result": "112 ± 0.6"}, {"measurement": "DAI, in words", "setting": "[3]; [9]", "result": "significantly improved"}, {"measurement": "histological index / histological score, in words", "setting": "[3]; [9]", "result": "significantly improved; also recorded: significantly ameliorated"}, {"measurement": "fecal occult blood, in words", "setting": "[3]; sub-acute or chronic DSS colitis, day 14th and 22nd, compared with untreated DSS mice", "result": "significantly reduced"}, {"measurement": "DAI, in words", "setting": "[4]", "result": "return toward normal"}, {"measurement": "histological score, in words", "setting": "[4]", "result": "return toward normal"}, {"measurement": "perianal manifestations (erythema, abscesses, ulcers)", "setting": "TNBS-induced colitis; TNBS treated mice", "result": "significantly alleviated"}, {"measurement": "damage of articular cartilage, meniscus and bone structure of knee joints", "setting": "[5]", "result": "significantly ameliorated"}, {"measurement": "histology of psoriasis skin lesions (HE)", "setting": "[6]", "result": "mostly recovered"}]}
{"smiles": "CC(C)(C)NC[C@H](O)c1cc(Cl)c(N)c(Cl)c1", "note": "[R-C, R-clenbuterol]", "values": [{"measurement": "colon histology (H&E), in words", "setting": "[1]", "result": "greatly improved"}, {"measurement": "Hist score (histological score)", "setting": "[1]", "result": "4.5 ± 0.5^"}, {"measurement": "FOB (fecal occult blood)", "setting": "[1]", "result": "2 ± 0.5"}, {"measurement": "Weight", "setting": "[1]", "result": "89 ± 2.0"}, {"measurement": "DAI (disease active index)", "setting": "[1]", "result": 5}, {"measurement": "Col Length (colon length)", "setting": "[1]", "result": "7 ± 0.7"}, {"measurement": "hemorrhoid inflammation symptoms", "setting": "[2]", "result": "significantly alleviated"}, {"measurement": "DAI, in words", "setting": "[3]; [9]", "result": "significantly improved"}, {"measurement": "histological index / histological score, in words", "setting": "[3]; [9]", "result": "significantly improved"}, {"measurement": "submucosa fibrosis and narrowing of intestinal lumen", "setting": "TNBS-induced colitis; TNBS treated mice", "result": "not seen"}, {"measurement": "weight loss, diarrhea, colon length versus normal control mice", "setting": "TNBS-induced colitis; oral administration", "result": "No significant different"}, {"measurement": "disease condition of TNBS colitis, in words", "setting": "TNBS-induced colitis; oral administration (R-enantiomers)", "result": "great ameliorated"}, {"measurement": "symptoms of acne, maliaria, hives and eczema", "setting": "[7]", "result": "significantly alleviated"}, {"measurement": "psoriasis and eczema", "setting": "psoriasis and eczema", "result": "significantly ameliorate"}]}
{"smiles": "CC(C)(C)NC[C@H](O)c1cc(O)cc(O)c1", "note": "[R-T, R-terbutaline]", "values": [{"measurement": "colon histology (H&E), in words", "setting": "[1]", "result": "greatly improved"}, {"measurement": "Hist score (histological score)", "setting": "[1]", "result": "6.0 ± 1^"}, {"measurement": "FOB (fecal occult blood)", "setting": "[1]", "result": "2 ± 0"}, {"measurement": "Weight", "setting": "[1]", "result": "88 ± 1.7"}, {"measurement": "DAI (disease active index)", "setting": "[1]", "result": 8}, {"measurement": "Col Length (colon length)", "setting": "[1]", "result": "6.6 ± 0.3"}, {"measurement": "DAI, in words", "setting": "[3]; [9]", "result": "significantly improved"}, {"measurement": "histological index / histological score, in words", "setting": "[3]; [9]", "result": "significantly improved"}, {"measurement": "symptoms of acne, maliaria, hives and eczema", "setting": "[7]", "result": "significantly alleviated"}, {"measurement": "psoriasis and eczema", "setting": "psoriasis and eczema", "result": "significantly ameliorate"}]}
